Measurements taken from US7951751B2, “Synergistic, crop plant-compatible herbicidal compositions comprising herbicides from the group of the benzoylpyrazoles” (Bayer Crop Science AG, priority 2005, dated 2011).

Legend:
STEME = assay: Herbicidal post-emergence action, greenhouse pot test, visual rating; assay type: in vivo; settings: rated 3 to 4 weeks after treatment
Procedure: (§1) Seeds of monocotyledonous and dicotyledonous weed and crop plants are place into sandy loam in wood fiber pots or in plastic pots, covered with soil and cultivated in a greenhouse, including during the vegetation period outdoors outside of the greenhouse, under good growth conditions. 2-3 weeks after sowing, the test plants are treated at the one- to three-leaf stage. The test compounds, formulated as wettable powders (WP) or liquid (EC) are, in various dosages with a water application rate of 300 I/ha (converted), with added wetting agent (0.2 to 0.3%), sprayed onto the plants and the surface of the soil. 3 to 4 weeks after the treatment of the test plants, the effect of the preparations is rated visually in comparison to untreated controls (herbicidal effect in percent (%): 100% effect=plants have died, 0% effect=like control plants).
If it is additionally to be tested as to whether safeners can improve the plant compatibility of test substances in the case of crop plants, the following options are used for applying the safener: • seeds of the crop plants are, before sowing, dressed with the safener substance (the amount of safener is stated in percent, based on the weight of the seed) • before the application of the test substances, the crop plants are sprayed with the safener at a certain application rate per hectare (usually 1 day before the application of the test substances) • the safener is applied together with the test substance as a tank mix (the amount of safener is stated in g/ha or as a ratio, based on the herbicide).
By comparing the effect of the test substances on crop plants without or with safener treatment, it is possible to assess the effect of the safener substance.

summer wheat = assay: Crop plant compatibility (damage) post-emergence, with and without safener; assay type: in vivo
Procedure: as §1, with “plants). […]” for “plants).”

Structure (SMILES): N#Cc1cc(Br)c(O)c(Br)c1 [Component B1.2, bromoxynil]
- Activity against STEME (STEME; 140 g of a.i./ha): 70%
- Damage of summer wheat (summer wheat; 1680 g of a.i./ha): 25%

Structure (SMILES): CCOC(=O)C1=NN(c2ccc(Cl)cc2Cl)C(C)(C(=O)OCC)C1 (stereo not drawn) [Component C1, mefenpyr-diethyl]
- Activity against STEME (STEME; 9.4 g of a.i./ha): 0%

Structure (SMILES): Cc1nn(C)c(O)c1C(=O)c1ccc(C(F)(F)F)cc1S(C)(=O)=O [A]
- Activity against STEME (STEME; 37.5 g of a.i./ha, 100% = plants have died): 50%
- Damage of summer wheat (summer wheat; 300 g of a.i./ha): 15%

Structure (SMILES): O=C(Nc1ccc(F)cc1F)c1cccnc1Oc1cccc(C(F)(F)F)c1 [Component B4.1, diflufenican]
- Activity against STEME (STEME; 75 g of a.i./ha): 70%
